Legend:
[1] = human, in vivo
Source text: Pharmacokinetics: Blood samples for PK analysis were collected to measure plasma total molybdenum and plasma ultrafiltrate (PUF) molybdenum.

copper [2] = details: Study 301, FIG. 23, versus SoC chelator therapy
Source text: Biomarkers and Biobank Samples: Blood samples were collected to measure plasma Cp and CpC. Urine samples were collected for analysis of urine copper and molybdenum. Additional biomarker or biobank samples were collected for the analysis of molybdenum and/or copper species associated with treatment.

[3] = in vivo
copper [4] = details: Study 201, BC-TTM monotherapy, Week 24
[5] = Study 301: adverse events in participants who switched from SoC to BC-TTM in the Extension Period; details: SoC Weeks 0-48 (N = 70), BC-TTM Weeks 49-96 (N = 61)

Bis-choline tetrathiomolybdate [BC-TTM]
Daily Mean AUC(0-48 weeks) PUF Mo, Mean [1]: 0.1 mmol/L | 24-hour urinary copper (copper [2]): lower | AEs in SOC Investigations [3]: 29.5% | AEs in SOC Metabolism and nutrition disorders [3]: 11.5% | AEs in SOC Skin and subcutaneous tissue disorders [3]: 13.1% | Affective disorder, E events [3]: 0 | Affective disorder, N participants [3]: 0 | Alanine aminotransferase increased, E events [3]: 14 | Alanine aminotransferase increased, N participants [3]: 12 | Alanine aminotransferase increased, participants (%) [3]: 19.7% | Anxiety, E events [3]: 1 | Anxiety, N participants [3]: 1 | Anxiety, participants (%) [3]: 1.6% | Aspartate aminotransferase increased, E events [3]: 4 | Aspartate aminotransferase increased, N participants [3]: 4 | Aspartate aminotransferase increased, participants (%) [3]: 6.6% | Attention deficit hyperactivity disorder, E events [3]: 0 | Attention deficit hyperactivity disorder, N participants [3]: 0 | Blood and lymphatic system disorders, E events [3]: 18 | Blood and lymphatic system disorders, N participants [3]: 7 | Blood and lymphatic system disorders, participants (%) [3]: 11.5% | Cardiac disorders, E events [3]: 5 | Cardiac disorders, N participants [3]: 3 | Cardiac disorders, participants (%) [3]: 4.9% | Congenital, familial, and genetic disorders, E events [3]: 0 | Congenital, familial, and genetic disorders, N participants [3]: 0 | Dyslipidemia, E events [3]: 1 | Dyslipidemia, N participants [3]: 1 | Dyslipidemia, participants (%) [3]: 1.6% | Ear and labyrinth disorders, E events [3]: 1 | Ear and labyrinth disorders, N participants [3]: 1 | Ear and labyrinth disorders, participants (%) [3]: 1.6% | Eczema, E events [3]: 1 | Eczema, N participants [3]: 1 | Eczema, participants (%) [3]: 1.6% | Eye disorders, E events [3]: 0 | Eye disorders, N participants [3]: 0 | Fatigue, E events [3]: 5 | Fatigue, N participants [3]: 5 | Fatigue, participants (%) [3]: 8.2% | Gamma-glutamyltransferase increased, E events [3]: 3 | Gamma-glutamyltransferase increased, N participants [3]: 3 | Gamma-glutamyltransferase increased, participants (%) [3]: 4.9% | Gastrointestinal disorders, E events [3]: 30 | Gastrointestinal disorders, N participants [3]: 18 | Gastrointestinal disorders, participants (%) [3]: 29.5% | Hand dermatitis, E events [3]: 1 | Hand dermatitis, N participants [3]: 1 | Hand dermatitis, participants (%) [3]: 1.6% | Hepatic enzyme increased, E events [3]: 3 | Hepatic enzyme increased, N participants [3]: 3 | Hepatic enzyme increased, participants (%) [3]: 4.9% | Hepatobiliary disorders, E events [3]: 3 | Hepatobiliary disorders, N participants [3]: 2 | Hepatobiliary disorders, participants (%) [3]: 3.3% | Hyperlipidaemia, E events [3]: 1 | Hyperlipidaemia, N participants [3]: 1 | Hyperlipidaemia, participants (%) [3]: 1.6% | Hypertriglyceridaemia, E events [3]: 3 | Hypertriglyceridaemia, N participants [3]: 1 | Hypertriglyceridaemia, participants (%) [3]: 1.6% | Infections and infestations, E events [3]: 23 | Infections and infestations, N participants [3]: 17 | Infections and infestations, participants (%) [3]: 27.9% | Injury, poisoning and procedural complications, E events [3]: 13 | Injury, poisoning and procedural complications, N participants [3]: 7 | Injury, poisoning and procedural complications, participants (%) [3]: 11.5% | Investigations, E events [3]: 29 | Investigations, N participants [3]: 18 | Investigations, participants (%) [3]: 29.5% | Metabolism and nutrition disorders, E events [3]: 10 | Metabolism and nutrition disorders, N participants [3]: 7 | Metabolism and nutrition disorders, participants (%) [3]: 11.5% | Neoplasms benign, malignant, and unspecified (incl cysts and polyps), E events [3]: 1 | Neoplasms benign, malignant, and unspecified (incl cysts and polyps), N participants [3]: 1 | Neoplasms benign, malignant, and unspecified (incl cysts and polyps), participants (%) [3]: 1.6% | Nervous system disorders, E events [3]: 12 | Nervous system disorders, N participants [3]: 11 | Nervous system disorders, participants (%) [3]: 18.0% | Neutrophil count decreased, E events [3]: 1 | Neutrophil count decreased, N participants [3]: 1 | Neutrophil count decreased, participants (%) [3]: 1.6% | Post-traumatic stress disorder, E events [3]: 1 | Post-traumatic stress disorder, N participants [3]: 1 | Post-traumatic stress disorder, participants (%) [3]: 1.6% | Product issues, E events [3]: 0 | Product issues, N participants [3]: 0 | Pruritus, E events [3]: 2 | Pruritus, N participants [3]: 2 | Pruritus, participants (%) [3]: 3.3% | Psychiatric disorders, E events [3]: 3 | Psychiatric disorders, N participants [3]: 3 | Psychiatric disorders, participants (%) [3]: 4.9% | Pyrexia, E events [3]: 1 | Pyrexia, N participants [3]: 1 | Pyrexia, participants (%) [3]: 1.6% | Rash pruritic, E events [3]: 1 | Rash pruritic, N participants [3]: 1 | Rash pruritic, participants (%) [3]: 1.6% | Rash, E events [3]: 5 | Rash, N participants [3]: 1 | Rash, participants (%) [3]: 1.6% | Renal and urinary disorders, E events [3]: 2 | Renal and urinary disorders, N participants [3]: 1 | Renal and urinary disorders, participants (%) [3]: 1.6% | Reproductive system and breast disorders, E events [3]: 0 | Reproductive system and breast disorders, N participants [3]: 0 | Respiratory, thoracic, and mediastinal disorders, E events [3]: 4 | Respiratory, thoracic, and mediastinal disorders, N participants [3]: 3 | Respiratory, thoracic, and mediastinal disorders, participants (%) [3]: 4.9% | Restlessness, E events [3]: 0 | Restlessness, N participants [3]: 0 | Skin and subcutaneous tissue disorders, E events [3]: 15 | Skin and subcutaneous tissue disorders, N participants [3]: 8 | Skin and subcutaneous tissue disorders, participants (%) [3]: 13.1% | Sleep disorder, E events [3]: 1 | Sleep disorder, N participants [3]: 1 | Sleep disorder, participants (%) [3]: 1.6% | Vascular disorders, E events [3]: 5 | Vascular disorders, N participants [3]: 3 | Vascular disorders, participants (%) [3]: 4.9% | imbalances in neurologic and psychiatric events after switch from SoC to BC-TTM [3]: not observed | reduction of mean serum cNCCcorrected compared with baseline (copper [4]): 72% | Musculoskeletal and connective tissue disorders, E events [5]: 7 | Musculoskeletal and connective tissue disorders, N participants [5]: 7 | Musculoskeletal and connective tissue disorders, participants (%) [5]: 11.5%

Source: patent US20250082674A1, “METHODS OF TREATING COPPER METABOLISM-ASSOCIATED DISEASES OR DISORDERS” (priority 2021, published 2025)
